In patent US10487219B2, “Method and compositions for cleaning cooking range exhaust systems” (NOVAPHARM RESEARCH (AUSTRALIA) PTY LTD, priority 2015, dated 2019):

Test: Biocide migration test: biocide in strippable PV Acetate emulsion coating, film coated with cooking oil for 24 hrs, oil tested for presence of biocide
Format: physicochemical
Settings: dry film in situ, oily deposits
Procedure: Initially biocides were selected for trial on the basis that they would be innocuous in a food preparation area. Many of those initially tested are food grade or similar low toxicity biocides. Biocides were tested by incorporating the biocide in the strippable PV Acetate emulsion coating formulation, coating a film of the coating with cooking oil and leaving it in place for 24 hrs and then testing the oil for presence of Biocide. The leaching of the biocide into the oil is considered a proxy for the ability of the film to prevent microbial degradation of the oily material coated thereon.

Structure (SMILES)	Suitability as oil soluble biocide leaching from the dry film into oils deposited on the film
CCCCOC(=O)c1ccc(O)cc1 [butyl parabens, Butyl Parabens]	satisfactory
OCCOc1ccccc1 [phenoxyethanol, Phenoxyethanol]	ineffective

Same assay, conditions: strippable PV Acetate emulsion coating film coated with cooking oil, 24 hrs, oil tested for presence of biocide

Structure (SMILES)	Leaching (migration) of the biocide from the coating into the oil
CCCCOC(=O)c1ccccc1 [butyl benzoate]	passed the above test
CCOC(=O)c1ccccc1 [ethylbenzoate]	passed the above test
CCCOC(=O)c1ccccc1 [propyl benzoate]	passed the above test
COC(=O)c1ccccc1 [methyl benzoate]	passed the above test
